Measurements: US11292781B2, “Pyrimidine tricyclic enone derivatives for inhibition of ROR-gamma and other uses” (REATA PHARMACEUTICALS, INC., priority 2016, dated 2022)

Legend:
[1] = tested on: IL-17A levels in primary human CD4+ T cells differentiated into Th17 cells; assay: IL-17 release from differentiated primary human T-cells (IL-17A HTRF); format: cell-based; conditions: primary human CD4+ T cells, Th17 differentiation, 46-hour incubation; read-out: hIL17 IC50
Procedure, shortened: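 Cryopreserved primary human CD4+ T cells were activated with CD3/CD28 beads (1:2.5) and driven to Th17 with TGF-β 5, IL-6 20, IL-23 20, IL-10 10 ng/mL in ≤0.1% DMSO for 46 h at 37° C, in triplicate. Supernatant IL-17A was measured by HTRF and viability by CyQuant normalized to DMSO. IC50s came from variable-slope nonlinear regression.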

[2] = tested on: Nrf2 transcription factor (GST ARE luciferase reporter in AREc32 cells); assay: AREc32 luciferase reporter assay; format: cell-based, human; conditions: EC2×: concentration required to increase GST ARE luciferase reporter activity by 2-fold, 19 hours
Procedure, shortened: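 AREc32 cells (MCF-7 carrying luciferase under eight rat GSTA2 ARE copies) treated with compound; luciferase measured by ONE-Glo luminescence. Signal normalised to DMSO wells as fold-induction, fitted by variable-slope log(agonist)-response regression, with EC2× interpolated from the curve.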

[3] = tested on: Human RAR-related Orphan Receptor Gamma (RORγ); assay: RORγ assay (GAL4-RORγ hybrid luciferase reporter, Indigo Biosciences); format: cell-based; conditions: GAL4-RORγ reporter cells, 23 hours
Excerpt: B. RORγ Assay and Cell Viability
The RORγ assay system was purchased from Indigo Biosciences. This nuclear receptor assay utilizes a human cell line that has been engineered to express a hybrid form of the Human RAR-related Orphan Receptor Gamma (RORγ) at high levels. The N-terminal DNA binding domain (DBD) of the native RORγ receptor was substituted with the yeast GAL4-DBD to generate the GAL4-RORγ hybrid nuclear receptor. The reporter cell line is transfected with a plasmid that encodes the beetle luciferase gene under the control of the GAL4 upstream activating sequence (UAS). GAL4 binds to the UAS and increases transcription of downstream target genes. […] To assess the RORγ inverse-agonist activity of the test compounds, reporter cells were plated in white 96-well plates in triplicate and were treated with DMSO (vehicle) or test compound (concentration ranges of 0.4-200 nM or 2-1000 nM) at 37° C. with 5% CO2 in a humidified atmosphere for 23 hours. After this incubation, luciferin was added to the wells and luciferase activity was determined by measuring the luminescence signal using a BMG Pherastar microplate reader. Viability was determined using the Live Cell Multiplex Assay (Indigo Biosciences). Values from test compound samples were normalized to those from DMSO-treated samples. Data were analyzed using GraphPad Prism version 6.00 for Windows (GraphPad Software, La Jolla Calif. USA). A non-linear regression analysis with log (inhibitor) vs. normalized response using a variable slope was applied to fit the data and determine the IC50 values for inhibition of RORγ and cell viability.

Structure (SMILES) | IC50 [1] [µM] | HRF2 ARE 2× [2] [nM] | IC50 [3] [µM]
C[C@H]1C(=O)C(C#N)=C[C@@]2(C)c3nc(-c4ccnc5ccccc45)nc(NS(C)(=O)=O)c3CC[C@H]12 [T98] | > 1 | >2000 | > 2
C[C@H]1C(=O)C(C#N)=C[C@@]2(C)c3nc(-c4ccncc4)nc(O)c3CC[C@H]12 [T17] |  | 839 | > 2
C[C@H]1C(=O)C(C#N)=C[C@@]2(C)c3nc(-c4ccnc(CCC(=O)O)c4)nc(-c4ccccc4F)c3CC[C@H]12 [T150] |  | >2000 | > 2
Cc1cc(-c2nc(-c3ccc(F)cc3)c3c(n2)[C@]2(C)CC(C(N)=O)C(=O)[C@H](C)[C@H]2CC3)ccn1 (stereo partly shown) [T185] |  | >2000 | > 2
C[C@H]1C(=O)C(C#N)=C[C@@]2(C)c3nc(C4CCN(C(=O)OC(C)(C)C)CC4)nc(-c4ccccc4)c3CC[C@H]12 [T44] | 0.06 | 596 | 
Cc1noc(C)c1-c1nc(-c2ccnc3ccccc23)nc2c1CC[C@@H]1[C@@H](C)C(=O)C(C#N)=C[C@@]21C [T100] | 0.178 | 865 | 
C[C@H]1C(=O)C(C#N)C[C@@]2(C)c3nc(-c4ccnc5ccccc45)nc(-c4ccccc4F)c3CC[C@H]12 (stereo partly shown) [T186] | 0.195 | >2000 | 
CC1(C)C(=O)C(C#N)=C[C@@]2(C)c3nc(-c4ccnc(C5CC5)c4)nc(-c4ccccc4F)c3CC[C@H]12 [T125] | 0.027 | 549 | 
Cc1noc(-c2nc(-c3ccnc4ccccc34)nc3c2CC[C@@H]2[C@@H](C)C(=O)C(C#N)=C[C@@]32C)n1 [T105] | 0.065 | 292 | 
CC1(C)C(=O)C(C#N)=C[C@@]2(C)c3nc(-c4cccc5ncccc45)nc(-c4ccccc4F)c3CC[C@H]12 [T149] | 0.014 | 330 | 
CC(C)CC[C@@]12C=C(C#N)C(=O)C[C@H]1CCc1c(-c3ccccc3F)nc(-c3ccnc(CF)c3)nc12 [T165] | 0.065 | 863 | 
CCC[C@@]1(C)C(=O)C(C#N)=C[C@@]2(C)c3nc(-c4ccnc(C5CC5)c4)nc(-c4ccccc4F)c3CC[C@H]12 [T137] | 0.009 | 274 | 
C[C@H]1C(=O)C(C#N)=C[C@@]2(C)c3nc(-c4ccncc4C4CC4)nc(-c4ccccc4F)c3CC[C@H]12 [T180] | 0.021 | 494 | 
C[C@]1(CCCO)C(=O)C(C#N)=C[C@@]2(C)c3nc(-c4ccnc(C5CC5)c4)nc(-c4ccccc4F)c3CC[C@H]12 [T136] | 0.025 | 518 | 
C[C@H]1C(=O)C(C#N)=C[C@@]2(C)c3nc(-c4cccc5ncccc45)nc(-c4ccccc4)c3CCC[C@H]12 [T183] | 0.07 | 1868 | 
C[C@H]1C(=O)C(C#N)=C[C@@]2(C)c3nc(-c4ncnc5ccccc45)nc(OC4CCC4)c3CC[C@H]12 [T112] | 0.085 | 559 | 
C[C@H]1C(=O)C(C#N)=C[C@@]2(C)c3nc(-c4ccnc5c(F)cccc45)nc(-c4ccccc4F)c3CC[C@H]12 [T77] | 0.031 | 264 | 
COc1nc(CCNC=O)nc2c1CC[C@@H]1[C@@H](C)C(=O)C(C#N)=C[C@@]21C [T11] |  | 2438 | > 2
